These results are taken from patent US11479546B2, “Antimalarial hexahydropyrimidine analogues” (UCB Biopharma SRL, priority 2018, dated 2022).

A word on the pIC50: it is −log10 of the IC50, conventionally taken in molar units. A high value points to a small IC50.

SMILES strings stand for the structures. pIC50: −log10 of the molar value.

In the first experiment the test system is Plasmodium falciparum 3D7. Briefly: P. falciparum 3D7 asexual blood stage assay, Assay Procedure Version 2 (SYBR green readout). The class given is cell-based. Conditions: Plasmodium falciparum, 3D7, Erythrocyte, 72 h, Version 2 of the assay procedure (asterisk *); 72 h incubation in infected erythrocytes; 50,000 nM to 15 nM. As for the experimental part: Asexual Blood Stage Assay
The assay used to measure the effect of test compounds on a bloodstream stage of Plasmodium falciparum 3D7 strain employs SYBR green as the readout. This is a dye that binds to double stranded deoxyribonucleic acid (DNA) with a resulting increase in fluorescence, allowing detection of P. falciparum DNA in infected erythrocytes, and thereby providing a measure of parasite growth and propagation.
P. falciparum Culture Maintenance
Erythrocytes (A+blood) were prepared for both parasite culture and assay by washing 4 times with incomplete media (15.9 g RPMI 1640 (25 mM HEPES, L-glutamine), 1 g NaHCO3, 2 g glucose, 400 μL gentacin (500 mg/mL), 2 mL hypoxanthine solution (13.6 g/L in 0.1M NaOH pH 7.3) in 1 litre of media). The cells were centrifuged at 1800 g for 5 minutes, before decanting the supernatant and re-suspending in fresh incomplete media. On the final wash, the cells were re-suspended in complete media (incomplete media with 5 g/L AlbumaxII), and centrifuged at 1800 g for 3 minutes. This cell sediment was treated as 100% haematocrit.
P. falciparum 3D7 was cultured in erythrocytes at 5% haematocrit in complete media at 37° C. (1% O2, 3% CO2, balance N2). Cultures were split on a weekly basis to achieve a 1% parasitaemia in erythrocites at 5% haematocrit in fresh media. Culture media is replaced by fresh media every other day (2 times during the week).
[formula] where A=% inhibition at bottom; B=% inhibition at top; C=EC50; D=slope; x=inhibitor concentration; and y=% inhibition. […] Assay Procedure—Version 2
On day 1, test compounds were added to assay plates using Echo dispensing technology ([…] and 20 points titration). 50 nL of each compound dilution was added to 50 μL of culture (5% haematocrit, 0.5% parasitaemia) and incubated for 72 h at 37° C. (1% O2, 3% CO2, balance N2). Final concentrations of test compounds ranged from 50,000 nM to 15 nM, in […].
On day 4, 10 μL SYBR green (Invitrogen S7563 supplied as 10,000× concentrate in DMSO) pre-diluted to 3× concentrate with Lysis buffer (20 mM Tris pH 7.9, 5% EDTA, 0.16% w/v, 1.6% TX100 v/v) was added to the cultures and incubated in the dark, overnight, at room temperature.
On day 5, fluorescent signal was measured using a BioTek plate reader (excitation 485 nm, emission 528 nm). All data were processed using IDBS ActivityBase. Raw data were converted into percent inhibition through linear regression by setting the high inhibition control (mefloquine) as 100% and the no inhibition control (DMSO) as 0%. Quality control criteria for passing plates were as follows: Z′>0.5, S:B>3, % CV(no inhibition control)<15. The formula used to calculate Z′ is:
[formula] where μ denotes the mean; σ denotes the standard deviation; p denotes the positive control; and n denotes the negative control.
All EC50 curve fitting was undertaken using the following bi-phasic two site dose response using XLfit model 300 (IDBS):
[formula] where A=100 minus the top of the upper curve 1 and the bottom of lower curve; B=Hill slope; log(C)=IC50 concentration at lower site; log(D)=IC50 concentration at upper site; x=inhibitor concentration; and y=% inhibition.
For the molecule `C[C@@]1(c2cccc(Nc3ccc(OC(F)F)nc3)c2Cl)CC(=O)N(C2CCC(F)(F)CC2)C(=N)N1` [Example 140, (6S)-6-(2-Chloro-3-{[6-(difluoromethoxy)pyridin-3-yl]-amino}phenyl)-3-(4,4-difluoro-cyclohexyl)-2-imino-6-methyl-hexahydropyrimidin-4-one], the pIC50 is 6.15.
For `C[C@@]1(c2cccc(Nc3ccc(OC(F)(F)F)nc3)c2Cl)CC(=O)N(C2CCOCC2)C(=N)N1` [Example 45, (6S)-6-(2-Chloro-3-{[6-(trifluoromethoxy)pyridin-3-yl]-amino}phenyl)-2-imino-6-methyl-3-(tetrahydropyran-4-yl)hexahydropyrimidin-4-one], the pIC50 is 6.52.
On the same count and under the same terms, in the case of `Cc1cc(Cl)c(Nc2cccc([C@]3(C)CC(=O)N(C4CCOCC4)C(=N)N3)c2Cl)cn1` [Example 110, (6S)-6-{2-Chloro-3-[(4-chloro-6-methylpyridin-3-yl)amino]-phenyl}-2-imino-6-methyl-3-(tetrahydropyran-4-yl)-hexahydropyrimidin-4-one] it was 6.64.
Same read-out and setting: then `CC(C)(C)c1ncc(Nc2cccc([C@]3(C)CC(=O)N(C4CCOCC4)C(=N)N3)c2Cl)cn1` [Example 62, (6S)-6-{3-[(2-tert-Butyl-pyrimidin-5-yl)amino]-2-chloro-phenyl}-2-imino-6-methyl-3-(tetrahydropyran-4-yl)-hexahydropyrimidin-4-one], with 6.65.
Same read-out and setting: in the case of `C[C@@]1(c2cccc(Nc3ccc(Cl)cc3S(C)(=O)=O)c2Cl)CC(=O)N(C2CCOCC2)C(=N)N1` [Example 118, (6S)-6-{2-Chloro-3-[4-chloro-2-(methylsulfonyl)anilino]-phenyl}-2-imino-6-methyl-3-(tetrahydropyran-4-yl)-hexahydropyrimidin-4-one] it was 6.86.
`C[C@@]1(c2cccc(Nc3ccc(C(F)(F)F)cc3)c2Cl)CC(=O)N([C@H]2C[C@@](C)(O)C2)C(=N)N1` [Example 174, (6S)-6-{2-Chloro-3-[4-(trifluoromethyl)anilino]-phenyl}-3-(3-hydroxy-3-methyl-cyclobutyl)-2-imino-6-methyl-hexahydropyrimidin-4-one]: the negative logarithm of the IC50 (pIC50) is 6.12.
`C[C@@H]1C[C@@H](N2C(=N)N[C@](C)(c3cccc(Nc4ccc(C5CC5)nc4)c3Cl)CC2=O)CCO1` (single isomer, unassigned; peak 1) [Example 193, (6S)-6-{2-Chloro-3-[(6-cyclo-propylpyridin-3-yl)amino]-phenyl}-2-imino-6-methyl-3-[(2R*,4S*)-2-methyltetrahydro-pyran-4-yl]hexahydropyrimidin-4-one (Peak 1)] showed a pIC50 of 6.83.
On the same count and under the same terms, then `C[C@@]1(c2cccc(Nc3ccc(C4CC4)nc3)c2Cl)CC(=O)N([C@H]2C[C@](O)(C(F)(F)F)C2)C(=N)N1` [Example 154, (6S)-6-{2-Chloro-3-[(6-cyclo-propylpyridin-3-yl)amino]-phenyl}-3-[3-hydroxy-3-(trifluoromethyl)cyclobutyl]-2-imino-6-methylhexahydro-pyrimidin-4-one (cis isomer)], with 6.05; and `Cc1ccc(Nc2cccc([C@]3(C)CC(=O)N([C@H]4C[C@@](C)(O)C4)C(=N)N3)c2Cl)cn1` [Example 125, (6S)-6-{2-Chloro-3-[(6-methyl-pyridin-3-yl)amino]phenyl}-3-(3-hydroxy-3-methylcyclo-butyl)-2-imino-6-methyl-hexahydropyrimidin-4-one], with 5.96; and `C[C@@H]1C[C@H](N2C(=N)N[C@](C)(c3cccc(Nc4cc(F)c5ccnn5c4)c3Cl)CC2=O)CCO1` (stereo in doubt) [Example 137, (6S)-6-{2-Chloro-3-[(4-fluoro-pyrazolo[1,5-a]pyridin-6-yl)-amino]phenyl}-2-imino-6-methyl-3-[(cis)-2-methyl-tetrahydropyran-4-yl]-hexahydropyrimidin-4-one], with 6.80.
In turn, `CC1(C)CC(N2C(=N)N[C@](C)(c3cccc(Nc4ccc(C5CC5)nn4)c3Cl)CC2=O)CCO1` (single isomer, unassigned) [Example 150, (6S)-6-{2-Chloro-3-[(6-cyclo-propylpyridazin-3-yl)amino]-phenyl}-3-[(4S*)-2,2-dimethyl-tetrahydropyran-4-yl]-2-imino-6-methylhexahydropyrimidin-4-one] gave a negative-log IC50 (pIC50) of 6.21.
On the same count and under the same terms, in the case of `Cn1cnc2cc(Nc3cccc([C@]4(C)CC(=O)N(C5CCOCC5)C(=N)N4)c3Cl)cnc21` [Example 116, (6S)-6-{2-Chloro-3-[(3-methyl-imidazo[4,5-b]pyridin-6-yl)-amino]phenyl}-2-imino-6-methyl-3-(tetrahydropyran-4-yl)hexahydropyrimidin-4-one] it was 6.25; in that of `C[C@@]1(c2cccc(Nc3cnc4ccccc4c3C#N)c2Cl)CC(=O)N(C2CCOCC2)C(=N)N1` [Example 89, 3-{2-Chloro-3-[(4S)-2-imino-4-methyl-6-oxo-1-(tetrahydro-pyran-4-yl)hexahydropyrimidin-4-yl]anilino}quinoline-4-carbonitrile], 6.63.
The same measure, in the same setting: then `COc1ncc(Nc2cccc([C@]3(C)CC(=O)N(C4CCOCC4)C(=N)N3)c2Cl)cc1F` [Example 49, (6S)-6-{2-Chloro-3-[(5-fluoro-6-methoxypyridin-3-yl)amino]-phenyl}-2-imino-6-methyl-3-(tetrahydropyran-4-yl)-hexahydropyrimidin-4-one], with 6.33.
`C[C@@]1(c2cccc(Nc3ccc(OC(F)(F)F)cc3)c2Cl)CC(=O)N(C2CCOCC2)C(=N)N1` [Example 64, (6S)-6-{2-Chloro-3-[4-(trifluoromethoxy)anilino]-phenyl}-2-imino-6-methyl-3-(tetrahydropyran-4-yl)-hexahydropyrimidin-4-one] had a pIC50 of 5.75.
On the same count and under the same terms, then `C[C@@]1(c2cccc(Nc3ccc(C(F)F)nc3)c2Cl)CC(=O)N(C2CCOCC2)C(=N)N1` [Example 81, (6S)-6-(2-Chloro-3-{[6-(difluoromethyl)pyridin-3-yl]-amino}phenyl)-2-imino-6-methyl-3-tetrahydropyran-4-yl-hexahydropyrimidin-4-one], with 6.37; and `C[C@@]1(c2cccc(Nc3ccccc3OC(F)(F)F)c2Cl)CC(=O)N(C2CCOCC2)C(=N)N1` [Example 53, (6S)-6-{2-Chloro-3-[2-(trifluoromethoxy)anilino]-phenyl}-2-imino-6-methyl-3-(tetrahydropyran-4-yl)-hexahydropyrimidin-4-one], with 6.67.
Still for that read-out and setting: in the case of `C[C@@]1(c2cccc(Nc3ccc(C4CCC4)nc3)c2Cl)CC(=O)N(C2CCOCC2)C(=N)N1` [Example 106, (6S)-6-{2-Chloro-3-[(6-cyclo-butylpyridin-3-yl)amino]-phenyl}-2-imino-6-methyl-3-(tetrahydropyran-4-yl)-hexahydropyrimidin-4-one] it was 6.43.

Staying with this experiment, now noted: Version 2 of the assay procedure (asterisk *); 72 h incubation in infected erythrocytes; 50,000 nM to 15 nM.
The molecule `CC1(C)CC(N2C(=N)N[C@](C)(c3cccc(Nc4ccc(C5CC5)nc4)c3Cl)CC2=O)CCO1` (single isomer, unassigned) [Example 158, (6S)-6-{2-Chloro-3-[(6-cyclo-propylpyridin-3-yl)amino]-phenyl}-3-[(4S*)-2,2-dimethyl-tetrahydropyran-4-yl]-2-imino-6-methylhexahydropyrimidin-4-one] gave a pIC50 of 5.76.
On the same count and under the same terms, in the case of `CC1(C#N)CC(N2C(=N)N[C@](C)(c3cccc(Nc4ccc(F)cc4)c3Cl)CC2=O)C1` [Example 180, 3-{(4S)-4-[2-Chloro-3-(4-fluoroanilino)phenyl]-2-imino-4-methyl-6-oxohexahydro-pyrimidin-1-yl}-1-methyl-cyclobutanecarbonitrile (trans isomer)] it was 6.20.
On to `Cc1ccc(Nc2cccc([C@]3(C)CC(=O)N(C4CCOC(C)(C)C4)C(=N)N3)c2Cl)cn1` (single isomer, unassigned) [Example 146, (6S)-6-{2-Chloro-3-[(6-methyl-pyridin-3-yl)amino]phenyl}-3-[(4S*)-2,2-dimethyltetrahydro-pyran-4-yl]-2-imino-6-methyl-hexahydropyrimidin-4-one], for which the pIC50 was 6.37.
